PubChem BioAssay (NCI)
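Growth conditions: 96-well plates. Treatment: test compound, 48 hours, 5 concentrations. Analysis: linear interpolation between bracketing concentrations; unreached endpoints set to highest concentration. Here, GI50 denotes the concentration required for 50% inhibition of growth. TGI denotes the concentration required for complete inhibition of growth.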

Tests used:
Experiment in all cases: NCI tumour cell line growth inhibition, 48 h
[1] = test system: SF-539 CNS
[2] = test system: EKVX NSCLC
[3] = test system: HCT-15 colon
[4] = test system: HOP-92 NSCLC
[5] = test system: HL-60(TB) leukemia
[6] = test system: COLO 205 colon
[7] = test system: RPMI-8226 leukemia
[8] = test system: PC-3 prostate
[9] = test system: MDA-MB-231 breast
[10] = test system: BT-549 breast

SMILES | TGI [1] | TGI [2] | TGI [3] | TGI [4] | TGI [5] | TGI [6] | TGI [7] | TGI [8] | TGI [9] | GI50 [10] | TGI [10] | GI50 [1] | GI50 [3] | GI50 [8] | GI50 [4] | GI50 [5] | GI50 [6] | GI50 [7] | GI50 [9] | GI50 [2]
O=C(Cc1ccccc1[N+](=O)[O-])C(CO)c1ccccc1[N+](=O)[O-] (centres undefined) | > 100 µM | > 100 µM | > 100 µM | 93.3 µM | > 100 µM | > 100 µM | > 100 µM |  |  |  |  |  |  |  |  |  |  |  |  | 
Cc1ccc([Se](=C(C(=O)c2ccccc2)C(=O)c2ccccc2)c2ccc(C)cc2)cc1 | 66 µM |  | 44.7 µM | 53.4 µM | 54.2 µM | 43.4 µM | 22.4 µM | 82.5 µM | 35.2 µM |  |  |  |  |  |  |  |  |  |  | 
Cc1ccccc1C1=C(c2cn(C)c3ccccc23)C(=O)NC1=O | > 25 µM |  | > 25 µM | > 25 µM | > 25 µM | > 25 µM | > 25 µM | > 25 µM | > 25 µM | > 21.8 µM | > 25 µM | 13.7 µM | 10.7 µM | 9.74 µM | > 25 µM | 10.8 µM | 9.01 µM | 20 µM | 21.5 µM | 
COc1cccc(C=O)c1C(=O)c1cc(O)ccc1O | > 100 µM | 37.9 µM | 41.3 µM | 33.1 µM | > 100 µM | 34.1 µM |  |  |  |  |  |  |  |  |  |  |  |  |  | 
COC(=O)C1CSC(c2csc(CCN)n2)=N1 (centres undefined) |  | > 100 µM | > 100 µM | > 100 µM | > 100 µM | > 100 µM | > 100 µM |  |  |  |  |  |  |  |  |  |  |  |  | 
O=C1/C(=C/c2ccc([N+](=O)[O-])s2)Oc2cc(Cl)ccc21 |  |  | 1.12 µM | 2.53 µM |  |  | 2.23 µM | 1.75 µM | 1.75 µM | 0.698 µM | 2.09 µM |  | 0.276 µM | 0.387 µM | 0.631 µM |  |  | 0.382 µM | 0.404 µM | 
OCC1OC2c3ccccc3COC2C1OCc1ccccc1 (centres undefined) |  | > 100 µM | > 100 µM |  |  | > 100 µM | > 100 µM |  |  |  |  |  |  |  |  |  |  |  |  | 
O=C(NC(=Nc1ccccc1)SCSC(=Nc1ccccc1)NC(=O)c1ccco1)c1ccco1 | 59.1 µM | > 100 µM | > 100 µM | 53.7 µM |  | > 100 µM | > 100 µM |  |  |  |  |  |  |  |  |  |  |  |  | 
COc1ccc(/C=C/C(=O)c2c(O)ccc3c(C)c(C(=O)O)oc23)cc1 | > 100 µM | > 100 µM | > 100 µM |  | > 100 µM | > 100 µM |  | > 100 µM | > 100 µM | 73.7 µM | > 100 µM | 35.6 µM | 28.2 µM | 66 µM |  | 35.5 µM | 63.4 µM |  | 44.7 µM | > 100 µM
COC(=O)[C@H]1COC(=S)N1C(=O)[C@@H](C)[C@H](O)C(C)C | > 100 µM | > 100 µM | > 100 µM | > 100 µM | > 100 µM | > 100 µM | > 100 µM |  |  |  |  |  |  |  |  |  |  |  |  | 
O=[N+]([O-])c1ccc(/C=C/c2nc3ccc(Cl)cc3[nH]2)cc1 | 39.4 µM | > 100 µM | > 100 µM |  | > 100 µM | > 100 µM | > 100 µM | > 100 µM | > 100 µM |  |  | 15.9 µM | 11.7 µM | 21.8 µM |  | > 100 µM | > 100 µM | 31.4 µM | 26.5 µM | > 100 µM
C/C(CCn1[nH]c(=O)ccc1=O)=N\NC(=O)C(N)=O | > 100 µM | > 100 µM | > 100 µM | > 100 µM | > 100 µM | > 100 µM |  |  |  |  |  |  |  |  |  |  |  |  |  | 
Nc1nc(N)c(CCCCc2ccccc2)c(C=O)n1 | 36.3 µM | 46.4 µM | 45.4 µM |  |  | > 100 µM | 41.2 µM |  |  |  |  |  |  |  |  |  |  |  |  | 
CC1(C)NC(=O)N(CCCCCCN2C(=O)NC(C)(C)C2=O)C1=O |  | > 100 µM | > 100 µM | > 100 µM |  | > 100 µM | > 100 µM |  |  |  |  |  |  |  |  |  |  |  |  | 
COc1ccc(-c2coc3cc(O)ccc3c2=O)cc1 | > 100 µM |  | > 100 µM |  | > 100 µM | > 100 µM |  | > 100 µM | > 100 µM |  |  |  |  |  |  |  |  |  |  | 
COC(=O)Cc1c([C@@]2(C)CCCC(C)(C)C2)ccc2c1C(=O)OC2 | 31.6 µM | 59.7 µM | 24.1 µM | 8.38 µM | 13.3 µM | 26.4 µM | 14.6 µM |  |  |  |  |  |  |  |  |  |  |  |  | 
Cc1ccc([P+](Cc2ccccc2)(c2ccccc2)c2ccccc2)cc1 | 50.9 µM |  | > 100 µM |  | 3.69 µM |  | 6.63 µM | > 100 µM | 19.2 µM | 3.31 µM | 14.8 µM | 3.03 µM | 19.5 µM | 1.53 µM |  | 1.14 µM |  | 0.6 µM | 2.17 µM | 
COC1=CC(c2ccc[nH]2)=N/C1=C\c1[nH]c(C)c(C(=O)CCC(=O)Oc2ccc3c(c2)CCC2C3CC[C@]3(C)[C@@H](O)CC[C@@H]23)c1C (some centres undefined) | 28.8 µM |  | 4.18 µM | 4.39 µM | > 100 µM | > 100 µM |  | > 100 µM | 2.55 µM | 3.51 µM | 61.5 µM | 3.69 µM | 1.29 µM | 3.8 µM | 1.45 µM | 4.7 µM | 5.15 µM |  | 0.46 µM | 
O=Cc1cccc2ccc3ccccc3c12 | 23 µM |  | > 100 µM |  |  | 37.5 µM |  | 55.5 µM | 77.3 µM |  | 96.9 µM |  |  |  |  |  |  |  |  | 
COC(=O)c1cc(NC(=O)c2cc(NC(=O)c3cc([N+](=O)[O-])n(C)c3)cn2C)cn1C | > 100 µM | > 100 µM | > 100 µM | 85.2 µM |  | > 100 µM | > 100 µM | > 100 µM | > 100 µM | 40.1 µM | > 100 µM | 56.1 µM | 44.8 µM | > 100 µM | 13.2 µM |  | 45.9 µM | > 100 µM | 51 µM | > 100 µM
O=[N+]([O-])c1cc(-c2nc(=S)[nH][nH]2)ccc1O | > 100 µM | > 100 µM | 31 µM |  | > 100 µM | 35.9 µM |  |  |  |  |  |  |  |  |  |  |  |  |  | 
COc1ccc2c(c1)[n+]([O-])c(-c1cccc(Cl)c1)c(N)[n+]2[O-] | > 100 µM | > 100 µM |  | > 100 µM | 95.6 µM | 30.3 µM |  |  |  |  |  |  |  |  |  |  |  |  |  | 
